Test results reported in patent US20200369630A1, “HERBICIDALLY ACTIVE 3-PHENYL-5-TRIFLUOROMETHYLISOXAZOLINE-5-CARBOXAMIDES OF CYCLOPENTYLCARBOXYLIC ACIDS AND ESTERS” (Bayer Aktiengesellschaft, priority 2017, published 2020).

Key:
Experiment in all cases: Post-emergence herbicidal action
Type in all cases: in vivo
[1] = tested on: ALOMY: Alopecurus myosuroides; settings: rated visually after about 3 weeks
Method: (§1) [table] Seeds of monocotyledonous and dicotyledonous weeds and crop plants are placed in sandy loam in plastic or wood-fiber pots, covered with soil and cultivated in a greenhouse under controlled growth conditions. 2 to 3 weeks after sowing, the test plants are treated at the one-leaf stage. The compounds of the invention, formulated in the form of wettable powders (WP) or as emulsion concentrates (EC), are then sprayed onto the green parts of the plants as aqueous suspension or emulsion with addition of 0.5% additive at a water application rate of […] (converted). After the test plants had been kept in the greenhouse under optimum growth conditions for about 3 weeks, the activity of the preparations is rated visually in comparison to untreated controls. For example, 100% activity=the plants have died, 0% activity=like control plants.

[2] = tested on: AMARE: Amaranthus retroflexus; settings: rated visually after about 3 weeks
Method: as §1

AVEFA: Avena fatua = settings: Table C2, post-emergence, dosage 320 (0.32 kg of active substance per hectare), rated visually after about 3 weeks
Method: as §1

[3] = tested on: ECHCG: Echinochloa crus-galli; settings: Table C2, post-emergence, dosage 320 (0.32 kg of active substance per hectare), rated visually after about 3 weeks
Method: as §1

HORMU: Hordeum murinum = settings: rated visually after about 3 weeks
Method: as §1

LOLRI: Lolium rigidum = settings: rated visually after about 3 weeks
Method: as §1

[4] = tested on: POLCO: Polygonum convolvulus; settings: rated visually after about 3 weeks
Method: as §1

STEME: Stellaria media = settings: Table C2, post-emergence, dosage 320 (0.32 kg of active substance per hectare), rated visually after about 3 weeks
Method: as §1

VERPE: Veronica persica = settings: rated visually after about 3 weeks
Method: as §1

[5] = Table C2, post-emergence, dosage 320 (0.32 kg of active substance per hectare)
[6] = Table C4, post-emergence, 320 g/ha

Structure (SMILES)	Herbicidal action against [%] ALOMY [1, 5] [%]	Herbicidal action against [%] AMARE [2, 5] [%]	Herbicidal action against [%] AVEFA (AVEFA: Avena fatua) [%]	Herbicidal action against [%] ECHCG [3] [%]	Herbicidal action against [%] HORMU (HORMU: Hordeum murinum; [5]) [%]	Herbicidal action against [%] LOLRI (LOLRI: Lolium rigidum; [5]) [%]	Herbicidal action against [%] POLCO [4, 5] [%]	Herbicidal action against [%] STEME (STEME: Stellaria media) [%]	Herbicidal action against [%] VERPE (VERPE: Veronica persica; [5]) [%]	Herbicidal action against [%] ALOMY [1, 6] [%]	Herbicidal action against [%] AMARE [2, 6] [%]	Herbicidal action against [%] HORMU (HORMU: Hordeum murinum; [6]) [%]	Herbicidal action against [%] LOLRI (LOLRI: Lolium rigidum; [6]) [%]	Herbicidal action against [%] POLCO [4, 6] [%]	Herbicidal action against [%] VERPE (VERPE: Veronica persica; [6]) [%]
COC(=O)C1CCC(NC(=O)C2(C(F)(F)F)CC(c3cc(F)c(F)c(F)c3)=NO2)C1 (mixture of isomers) [Example I-171]	100	80	90	80	80	100	80	80	80						
CCOC(=O)C1CCC(NC(=O)C2(C(F)(F)F)CC(c3cc(F)c(F)c(F)c3)=NO2)C1 (mixture of isomers) [Example I-185]	90	80	100	80	90	90	90	80	80						
O=C(O)C1CCC(NC(=O)C2(C(F)(F)F)CC(c3cccc(F)c3)=NO2)C1 (mixture of isomers) [Example I-311]	100	90	100	100	100	100	100	100	90						
COC(=O)C1CCC(NC(=O)C2(C(F)(F)F)CC(c3cccc(F)c3)=NO2)C1 (mixture of isomers) [Example I-325]	90	80	100	90	90	100	80	90	80						
CCOC(=O)C1CCC(NC(=O)C2(C(F)(F)F)CC(c3cccc(F)c3)=NO2)C1 (mixture of isomers) [Example I-339]	100	100	100	100	100	100	100	100	90						
O=C(OCCCl)C1CCC(NC(=O)C2(C(F)(F)F)CC(c3cccc(F)c3)=NO2)C1 (mixture of isomers) [Example I-409]	100	90	100	100	100	100	100	100	90						
O=C(OCC(F)(F)F)C1CCC(NC(=O)C2(C(F)(F)F)CC(c3cccc(F)c3)=NO2)C1 (mixture of isomers) [Example I-423]	100	90	100	100	100	100	90	100	90						
CCOC(=O)C1CCC(NC(=O)C2(C(F)(F)F)CC(c3cc(C)cc(F)c3)=NO2)C1 (mixture of isomers) [Example I-543]	90	100	100	90	80	90	100	80	90						
COC(=O)C1CCC(NC(=O)C2(C(F)(F)F)CC(c3cc(C)cc(Cl)c3)=NO2)C1 (mixture of isomers) [Example I-802]	90	90	100	80	80	90	100	90	90						
Cc1cc(Cl)cc(C2=NOC(C(=O)NC3CCC(C(=O)OCCCl)C3)(C(F)(F)F)C2)c1 (mixture of isomers) [Example I-838]										100	80	90	100	100	80
Cc1cc(Cl)cc(C2=NOC(C(=O)NC3CCC(C(=O)OCC(F)(F)F)C3)(C(F)(F)F)C2)c1 (mixture of isomers) [Example I-844]										100		80	90	100	90
CC(C)(C)OC(=O)[C@H]1CC[C@@H](NC(=O)C2(C(F)(F)F)CC(c3cc(F)cc(F)c3)=NO2)C1 (relative stereo) [Example I-85, tert-butyl cis-3-({[3-(3,5-difluorophenyl)-5-(trifluoromethyl)-4,5-dihydro-1,2-oxazol-5-yl]carbonyl}amino)cyclopentanecarboxylate]										90	80	90	90		80
O=C(O)[C@@H]1CC[C@H](NC(=O)[C@@]2(C(F)(F)F)CC(c3cc(F)cc(F)c3)=NO2)C1 [Example I-11, (1R,3S)-3-({[(5R)-3-(3,5-difluorophenyl)-5-(trifluoromethyl)-4,5-dihydro-1,2-oxazol-5-yl]carbonyl}amino)cyclopentanecarboxylic acid]	80	80	90	80	80	90	80	90	80						
COC(=O)[C@H]1CC[C@H](NC(=O)C2(C(F)(F)F)CC(c3cc(F)cc(F)c3)=NO2)C1 (stereo partly drawn) [Example I-20, methyl (1S,3S)-3-({[3-(3,5-difluorophenyl)-5-(trifluoromethyl)-4,5-dihydro-1,2-oxazol-5-yl]carbonyl}amino)cyclopentanecarboxylate]										80	80	90	90		90
COC(=O)[C@H]1CC[C@H](NC(=O)[C@@]2(C(F)(F)F)CC(c3cc(F)cc(F)c3)=NO2)C1 [Example I-28]										80		90	90	80	80
CCOC(=O)[C@H]1CC[C@H](NC(=O)[C@@]2(C(F)(F)F)CC(c3cc(F)cc(F)c3)=NO2)C1 [Example I-42]	80	80	90	80	90	90	80	90	80						
CCCOC(=O)[C@@H]1CC[C@H](NC(=O)[C@@]2(C(F)(F)F)CC(c3cc(F)cc(F)c3)=NO2)C1 [Example I-53]	100	90	100	100	100	100	100	100	90						
CC(C)OC(=O)[C@@H]1CC[C@H](NC(=O)[C@@]2(C(F)(F)F)CC(c3cc(F)cc(F)c3)=NO2)C1 [Example I-67]	100	90	100	90	100	100	90	100	90						
